Where two headings read alike, the source gives them in different places.
Tests used:
[1] = tested on: epidermal keratinocytes
[2] = tested on: epidermis; settings: three topical applications of TPA at 10 μg each; for thickness of hyperplastic epidermis (mean±SD): 18 hrs post treatment; for thickness of epidermal layers: after 48 hrs
Procedure: Measurement of Hyperplasia. Hyperplasia was assessed in six WT and K14.ATF2^f/f mice (8-week-old) after treatment with acetone or TPA at the indicated time points. The thickness of the epidermis (μm) was measured using an image system (SlideBook-Intelligent imaging) in 15 fields per section.
In order to determine the possible effect of ATF2 disruption on keratinocyte proliferation possible changes in epidermal hyperplasia was assessed.

[3] = tested on: basal epidermal cells; assay: BrdU incorporation in basal keratinocytes after TPA treatment; assay type: in vivo, mice
Procedure: 5-bromo-2-deoxyuridine (BrdU) incorporation. 8-week-old K14.ATF2^f/f mice and WT mice were shaved 2 days before treatment with TPA (10 μg/200 μl acetone). BrdU (0.1 mg/g body weight) was injected intraperitoneally 1 h before the mice were sacrificed. The mice were euthanized 7, 24 and 48 h after six TPA treatments and their dorsal skins were removed, fixed in formalin and processed for paraffin embedding. Immunohistochemical staining was performed with a monoclonal anti-BrdU antibody (Sigma Aldrich, 1:100), which was applied to each section overnight at 4° C. after masking mouse IgG according to the protocol of the M.O.M. kit. […] BrdU positive and negative basal cells were counted in three to five randomly selected areas of each skin section (3-4 sections per mouse) and the mean percentage of BrdU-positive cells and standard deviation (s.d.) for each treatment group were determined.
Induced DNA synthesis in basal epidermal cells of TPA-treated K14.ATF2^f/f mice. In light of the enhanced hyperplastic responses seen in the epidermis of K14.ATF2^f/f mice, possible changes in the rate of keratinocyte proliferation, which could account for the increased hyperplasia, were assessed. BrdU labeling was carried out to quantify DNA synthesis in basal keratinocytes. […]

Compound: Cc1c2ccccc2c(C)c2c1ccc1ccccc12 [DMBA, 7,12-dimethylbenz[a]anthracene]
- mice having developed tumors ([1]; mouse, in vivo): 50%
- mice that had developed tumors ([1]; mouse, in vivo): about 40%
- papilloma development ([1]; mouse, in vivo): did not result in papilloma development
- time at which papillomas started to appear after DMBA treatment ([1]; mouse, in vivo): around 17 weeks

Compound: CCCCCCCCCCCCCC(=O)O[C@@H]1[C@@H](C)[C@@]2(O)[C@@H](C=C(CO)C[C@]3(O)C(=O)C(C)=C[C@@H]23)[C@H]2C(C)(C)[C@]12OC(C)=O [TPA]
- thickness of hyperplastic epidermis (mean±SD) ([2]; K14.ATF2f/f mice): 42±3.2 μm
- thickness of epidermal layers ([2]; K14.ATF2f/f mice): 102±2.8 μm
- thickness of hyperplastic epidermis (mean±SD) ([2]; WT mice): 21±2.6 μm
- thickness of epidermal layers ([2]; wild-type mice): 45±2.3 μm
- percentage of BrdU-labeled basal cells ([3]; K14.ATF2f/f mice, 24 h after TPA treatment): 32±3.0%
- percentage of BrdU-labeled basal cells ([3]; wild-type mice, 24 hours after TPA treatment): 15±3%
- papilloma development ([1]; DMBA or TPA alone, WT or ATF2 mutant mice): did not result in papilloma development

Source: patent US20110129844A1, “Use of Activating Transcription Factor-2 (ATF2) for Detecting Skin Cancer” (priority 2007, published 2011)
